The text below walks through data of the NIST ThermoML archive (doi:10.1021/je900641w).

The conditions of the data set: 1000 kPa, Liquid, Coaxial cylinder method.

Numbers after ± are expanded uncertainties.

For `COCC(C)OCC(C)OC` (centres undefined) [2-methoxy-1-(2-methoxy-1-methylethoxy)propane], the thermal conductivity (302.75 K) is on record as 0.1242 ± 0.0056 W/m/K, the thermal conductivity (332.54 K) is on record as 0.1169 ± 0.0052 W/m/K, the thermal conductivity (362.39 K) stood at 0.1085 ± 0.0049 W/m/K and the thermal conductivity (392.16 K) came to 0.099 ± 0.0045 W/m/K.

`COCCOC` [1,2-dimethoxyethane]: the thermal conductivity reads like this: (302.75 K) 0.1605 ± 0.0071 W/m/K; (332.54 K) 0.1452 ± 0.0064 W/m/K; (362.39 K) 0.1317 ± 0.0059 W/m/K; (392.16 K) 0.1183 ± 0.0053 W/m/K.

For the compound `COCCOCCOCCOC` [2,5,8,11-tetraoxadodecane], the thermal conductivity (302.75 K) is reported as 0.1433 ± 0.0064 W/m/K, the thermal conductivity (332.54 K) is 0.137 ± 0.0061 W/m/K, the thermal conductivity (362.39 K) was 0.1303 ± 0.0058 W/m/K and the thermal conductivity (392.16 K) worked out at 0.1227 ± 0.0055 W/m/K.

On to `COCCOCCOC` [2,5,8-trioxanonane], for which the thermal conductivity is, setting by setting: (302.75 K) 0.1461 ± 0.0065 W/m/K; (332.54 K) 0.1324 ± 0.0059 W/m/K; (362.39 K) 0.1205 ± 0.0054 W/m/K; (392.16 K) 0.1076 ± 0.0048 W/m/K.

Turning to `COCCOCCOCCOCCOC` [2,5,8,11,14-pentaoxapentadecane], the thermal conductivity is 0.1469 ± 0.0065 W/m/K (302.75 K), 0.1407 ± 0.0063 W/m/K (332.54 K), 0.1345 ± 0.006 W/m/K (362.39 K) and 0.1274 ± 0.0057 W/m/K (392.16 K).

For the compound `c1ccccc1` [benzene], the thermal conductivity stood at 0.1409 ± 0.0037 W/m/K (302.75 K), 0.1304 ± 0.0035 W/m/K (332.54 K), 0.1194 ± 0.0032 W/m/K (362.39 K) and 0.1098 ± 0.003 W/m/K (392.16 K).
